Data taken from article PMC9732455, “PCW-A1001, AI-assisted de novo design approach to design a selective inhibitor for FLT-3(D835Y) in acute myeloid leukemia” (Frontiers in Molecular Biosciences, 2022).

Assays:
FLT-3 WT = biological target: T1, FLT-3 WT (Homo sapiens, UniProt P36888); test: in vitro kinase assay (ThermoFisher), dose-response; format: biochemical
T1 construct: gene FLT3
T1 sequence (P36888 27-993): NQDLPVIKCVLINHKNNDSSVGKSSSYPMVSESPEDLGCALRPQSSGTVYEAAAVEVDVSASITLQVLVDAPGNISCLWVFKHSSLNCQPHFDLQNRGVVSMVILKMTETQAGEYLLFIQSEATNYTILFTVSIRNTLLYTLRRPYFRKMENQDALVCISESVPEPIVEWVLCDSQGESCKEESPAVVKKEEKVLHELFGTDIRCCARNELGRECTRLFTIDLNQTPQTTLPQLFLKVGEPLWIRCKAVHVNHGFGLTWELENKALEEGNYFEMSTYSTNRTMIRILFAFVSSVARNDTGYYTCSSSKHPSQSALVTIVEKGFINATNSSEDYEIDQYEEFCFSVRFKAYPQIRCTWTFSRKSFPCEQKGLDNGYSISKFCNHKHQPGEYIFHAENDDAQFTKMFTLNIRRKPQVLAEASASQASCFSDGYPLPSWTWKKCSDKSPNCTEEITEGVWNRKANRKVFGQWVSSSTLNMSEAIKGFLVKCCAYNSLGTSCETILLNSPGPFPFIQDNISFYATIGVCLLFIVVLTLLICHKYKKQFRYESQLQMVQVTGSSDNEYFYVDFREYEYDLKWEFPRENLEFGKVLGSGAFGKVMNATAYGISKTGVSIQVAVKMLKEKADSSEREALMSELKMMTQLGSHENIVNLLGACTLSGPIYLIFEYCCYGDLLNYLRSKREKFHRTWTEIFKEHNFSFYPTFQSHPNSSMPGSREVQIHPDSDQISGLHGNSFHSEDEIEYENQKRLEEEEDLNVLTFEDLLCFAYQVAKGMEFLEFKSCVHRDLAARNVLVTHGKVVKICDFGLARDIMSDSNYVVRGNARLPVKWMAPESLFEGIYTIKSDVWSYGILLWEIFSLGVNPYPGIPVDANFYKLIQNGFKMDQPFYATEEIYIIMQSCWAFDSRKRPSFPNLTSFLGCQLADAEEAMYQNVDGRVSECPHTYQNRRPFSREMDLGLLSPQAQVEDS

FLT-3 (D835Y) = biological target: T2, FLT-3 (D835Y) (Homo sapiens, UniProt P36888, D835Y); test: as above; format: biochemical
T2 construct: gene FLT3
T2 sequence (P36888 564-993 D835Y limits assumed): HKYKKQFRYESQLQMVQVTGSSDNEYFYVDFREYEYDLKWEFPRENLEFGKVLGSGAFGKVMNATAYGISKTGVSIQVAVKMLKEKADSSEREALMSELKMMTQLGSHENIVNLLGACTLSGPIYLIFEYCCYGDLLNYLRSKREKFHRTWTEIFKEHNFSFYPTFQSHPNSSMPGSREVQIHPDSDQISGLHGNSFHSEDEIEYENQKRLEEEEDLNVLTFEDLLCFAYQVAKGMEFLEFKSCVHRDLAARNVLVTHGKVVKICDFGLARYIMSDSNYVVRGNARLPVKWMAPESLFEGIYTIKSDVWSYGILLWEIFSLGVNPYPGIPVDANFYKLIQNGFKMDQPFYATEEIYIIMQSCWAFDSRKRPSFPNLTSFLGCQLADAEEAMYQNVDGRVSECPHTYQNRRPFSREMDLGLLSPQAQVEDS

Structure (SMILES): CC(C)(C)c1ccc(C(=O)Nc2ccc(C(N)=O)c(NC3CCCNC3)c2)cc1 (centres unmarked) [PCW-A1001]
- IC50 (FLT-3 WT): 2.54 µM
- IC50 (FLT-3 (D835Y)): 0.764 µM
